From patent publication US8258130B2 (Sanofi, priority 2007, dated 2012)

These compounds were tested against human h-PGDS (Homo sapiens, UniProt O60760) (assay: Enzyme Immunoassay (EIA) method, inhibition of hematopoietic PGD2 synthase). Settings: EIA assay, PGD2 formed from PGH2 by human h-PGDS.
Assay type: biochemical
Protocol: Assay 2: Enzyme Immunoassay (EIA) Method
• a. Preparation of 0.1M K2HPO4/KH2PO4 buffer (pH 7.4) • Prepare 0.1 M KH2PO4 from 1M KH2PO4 (Sigma, Cat# P-8709) • Prepare 0.1 M K2HPO4 from powder of K2HPO4 (Fisher, BP363-500) • Mix 0.1 M K2HPO4 with 0.1 M KH2PO4 to adjust pH to 7.4. • b. Preparation of 0.5% γ-globulin • Add 0.1 g of γ-globulin (Sigma, Cat# G-5009) to 20 mL 0.1 M K2HPO4/KH2PO4 buffer (pH 7.4) and make 1-mL/vial aliquots and store in −80° C. • c. Preparation of 100 mM GSH • Add 307 mg of GSH (Sigma, Cat# G-6529) to 10 mL 0.1 M K2HPO4/KH2PO4 buffer (pH 7.4) and store at −80° C. • d. Preparation of Reaction buffer: • 198 mL of 0.1M K2HPO4/KH2PO4 buffer (pH 7.4) • 2 mM GSH—Prepared from 100 mM GSH • 0.4 g Glycerol • 2 mL of 0.5% γ-globulin • Add 0.4 g of glycerol and 2 mL of 0.5% γ-globulin to 198 mL of 0.1 M K2HPO4/KH2PO4 • buffer (pH7.4). • Add 0.4 mL of 100 mM GSH to 19.6 mL reaction buffer before the assay (enough for two 96-well plates). • e. Preparation of FeCl2/citric acid stopping solution: (8 mg/mL FeCl2, 0.1 M citric acid) • Add 40 mg fresh FeCl2 (IGN, Cat# 158046) to 5 mL 0.1 M citric acid (Sigma, Cat# C0759). • f. Preparation of MOX reagent: • 10% EtOH—Add 1 mL of EtOH to 9 mL of ultra pure H2O • Dissolve 0.1 g of methoxyl amine (Cayman, Cat# 400036/) in 10% EtOH (10 mL). • Add 0.82 g of sodium acetate (Cayman, Cat#400037) to MOX solution and dissolve. II. Materials and Method • Dimethylsulfoxide (DMSO; Sigma; Cat# D2650) • Prostaglandin D2-MOX express EIA kit (Caymen Chemical, Catalog No. 500151)
Before the assay, cool down 10 mL of acetone in polypropylene tubes and empty 96 well plates in ice. All the procedures except compound dilution are performed on ice.
• 1. Dilute compound in DMSO
• 2. Dilute 2 μL of each above concentration of compound to 38 μL of reaction buffer in 96-well plates and mix. IV. Enzyme and Substrate Solution Preparation • 1 Preparation of 0.39 ng/μL enzyme solution (0.35 ng/μL at final after compound addition). • Mix 4 μL of 4 mg/mL human h-PGDS with 396 μL of reaction buffer (to give enzyme concentration 40 μg/mL). Add 46.8 μL of 40 μg/mL h-PGDS to 4.753 mL of reaction buffer to give a total volume of 4.8 mL • 2. Preparation of Substrate Solution (PGH2): Add 0.375 mL of 0.1 mg/mL of PGH2 to 1.625 mL acetone. V. Enzyme Reaction: • 1. Add 60 μL of enzyme solution to compound well and positive control (without compound) in U-bottom polypropylene plate on ice. • 2. Add 60 μL of reaction buffer and 6.6 μL of 5% DMSO in reaction buffer into negative control wells in the plate. • 3. Add 6.6 μL of diluted compound in reaction buffer to the compound wells and mix. • 4. Add 6.6 μL of 5% DMSO in reaction buffer to the positive control well. • 5. Incubate the plate in ice for at least 30 min. • 6. Add 20 μL of substrate (PGH2) solution to compound, negative and positive control wells in the U-bottom 96 well plate on ice. • 7. Dry the plate in cold room for about 25-28 min. • 8. Pipette 45 μL of enzyme solution (above) into 96-wells with dried PGH2 and mix 3 times. Incubate on the ice for 1 min. • 9. Add 45 μL of FeCl2 solution into each wells and mix. • 10. Add 90 μL of MOX solution and mix. • 11. Incubate for 30 min at 60° C. • 12. Dilute the samples 2500× with EIA buffer. VI. EIA Assay • Perform the assay according to the procedure in EIA kit provided by Cayman. Total PGD2 levels (pg/mL) were determined in the samples by EIA kits (Caymen Chemical, Catalog No. 500151) Calculate Amount of PGD2 as Below • Calculated % Positive control according to the equation below; % Positive control=(Compound value−Negative control)/(Positive value−Negative control value)×100. […]

human h-PGDS, sequence (O60760 whole entry): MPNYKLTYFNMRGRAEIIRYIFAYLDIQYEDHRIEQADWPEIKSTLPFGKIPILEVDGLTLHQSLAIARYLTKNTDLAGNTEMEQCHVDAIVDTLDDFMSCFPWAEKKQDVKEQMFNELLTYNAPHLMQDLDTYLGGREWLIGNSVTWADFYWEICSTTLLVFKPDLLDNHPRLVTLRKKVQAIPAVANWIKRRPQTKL

Structure (SMILES) | IC50
O=C(NN1CCc2ccccc21)c1cnc(-c2ccccn2)nc1 [Example 103, 2-Pyridin-2-yl-pyrimidine-5-carboxylic acid (2,3-dihydro-indol-1-yl)-amide] | 3 nM
O=C(Nn1ccc2ccccc21)c1cnc(-c2ccccn2)nc1 [Example 104, 2-Pyridin-2-yl-pyrimidine-5-carboxylic acid indol-1-yl-amide] | 4.5 nM
O=C(Nn1ccc2ccccc21)c1cnc(-c2cccc(F)c2)nc1 [Example 105, 2-(3-Fluoro-phenyl)-pyrimidine-5-carboxylic acid indol-1-yl-amide] | 5 nM
Cc1nc(-c2cccc(F)c2)ncc1C(=O)NN1CCc2ccccc21 [Example 106, 2-(3-Fluoro-phenyl)-4-methyl-pyrimidine-5-carboxylic acid (2,3-dihydro-indol-1-yl)-amide] | 23 nM
Cc1cc2ccccc2n1NC(=O)c1cnc(-c2cccc(F)c2)nc1 [Example 108, 2-(3-Fluoro-phenyl)-pyrimidine-5-carboxylic acid (2-methyl-indol-1-yl)-amide] | 6 nM
Cc1nc(-c2cccc(F)c2)ncc1C(=O)Nn1ccc2ccccc21 [Example 109, 2-(3-Fluoro-phenyl)-4-methyl-pyrimidine-5-carboxylic acid indol-1-ylamide] | 10 nM
Cc1nc(-c2ccccn2)ncc1C(=O)NN1CCc2ccccc21 [Example 110, 4-Methyl-2-pyridin-2-yl-pyrimidine-5-carboxylic acid (2,3-dihydro-indol-1-yl)-amide] | 3 nM
Cc1nc(-c2ccccn2)ncc1C(=O)Nn1ccc2ccccc21 [Example 111, 4-Methyl-2-pyridin-2-yl-pyrimidine-5-carboxylic acid indol-1-ylamide] | 5 nM
CS(=O)(=O)c1ccc2ccn(NC(=O)c3cnc(-c4cccc(F)c4)nc3)c2c1 [Example 113, 2-(3-Fluoro-phenyl)-pyrimidine-5-carboxylic acid (6-methanesulfonyl-indol-1-yl)-amide] | 8 nM
O=C(Nn1ccc2ncccc21)c1cnc(-c2cccc(F)c2)nc1 [Example 118, 2-(3-Fluoro-phenyl)-pyrimidine-5-carboxylic acid pyrrolo[3,2-b]pyridin-1-ylamide] | 18 nM
COc1ccccc1-c1ncc(C(=O)NN2CC(C)=NNC2=O)cn1 [Example 120, 2-(2-Methoxy-phenyl)-pyrimidine-5-carboxylic acid (6-methyl-3-oxo-2,5-dihydro-3H-[1,2,4]triazin-4-yl)-amide] | 199 nM
Cc1nc(-c2cccc(F)c2)ncc1C(=O)Nn1ccc2cccnc21 [Example 122, 2-(3-Fluoro-phenyl)-4-methyl-pyrimidine-5-carboxylic acid pyrrolo[2,3-b]pyridin-1-ylamide] | 12 nM
Cc1nc(-c2ccccn2)ncc1C(=O)Nn1ccc2cc(F)ccc21 [Example 123, 4-Methyl-2-pyridin-2-yl-pyrimidine-5-carboxylic acid (5-fluoro-indol-1-yl)-amide] | 17 nM
O=C(Nn1ccc2cc(F)ccc21)c1cnc(-c2ccccn2)nc1 [Example 124, 2-Pyridin-2-yl-pyrimidine-5-carboxylic acid (5-fluoro-indol-1-yl)-amide] | 18 nM
Cc1nc(-c2ccccn2)ncc1C(=O)Nn1ccc2ncccc21 [Example 127, 4-Methyl-2-pyridin-2-yl-pyrimidine-5-carboxylic acid pyrrolo[3,2-b]pyridin-1-ylamide] | 13 nM
Cc1nc(-c2cccc(F)c2)ncc1C(=O)Nn1ccc2ccncc21 [Example 128, 2-(3-Fluoro-phenyl)-4-methyl-pyrimidine-5-carboxylic acid pyrrolo[2,3-c]pyridin-1-ylamide] | 28.5 nM
Cc1nc(-c2cccnc2)ncc1C(=O)Nn1ccc2ncccc21 [Example 130, 4-Methyl-2-pyridin-3-yl-pyrimidine-5-carboxylic acid pyrrolo[3,2-b]pyridin-1-ylamide] | 14 nM
Cc1nc(-c2cccc(F)c2)ncc1C(=O)Nn1ccc2cc(F)ccc21 [Example 132, 2-(3-Fluoro-phenyl)-4-methyl-pyrimidine-5-carboxylic acid (5-fluoro-indol-1-yl)-amide] | 19 nM
COc1ccc2c(ccn2NC(=O)c2cnc(-c3cccc(F)c3)nc2C)c1 [Example 133, 2-(3-Fluoro-phenyl)-4-methyl-pyrimidine-5-carboxylic acid (5-methoxy-indol-1-yl)-amide] | 6 nM
CC1=NNC(=O)N(NC(=O)c2cnc(-c3cccc(O)c3)nc2)C1 [Example 154, 2-(3-Hydroxy-phenyl)-pyrimidine-5-carboxylic acid (6-methyl-3-oxo-2,5-dihydro-3H-[1,2,4]triazin-4-yl)-amide] | 21 nM
Cc1nc(-c2ncccn2)ncc1C(=O)Nn1cc(C)c2cc(F)ccc21 [Example 157, 4-Methyl-[2,2′]bipyrimidinyl-5-carboxylic acid (5-fluoro-3-methyl-indol-1-yl)-amide] | 4.5 nM
Cc1nc(-c2cccc(F)c2)ncc1C(=O)Nn1cc(C(N)=O)c2cc(F)ccc21 [Example 162, 5-Fluoro-1-{[2-(3-fluoro-phenyl)-4-methyl-pyrimidine-5-carbonyl]-amino}-1H-indole-3-carboxylic acid amide] | 8 nM
Cc1nc(-c2cccc(F)c2)ncc1C(=O)Nn1cc(C(C)(C)C(=O)O)c2cc(F)ccc21 [Example 164, 2-(5-Fluoro-1-{[2-(3-fluoro-phenyl)-4-methyl-pyrimidine-5-carbonyl]-amino}-1H-indol-3-yl)-2-methyl-propionic acid] | 7 nM
Cc1nc(-c2nccs2)ncc1C(=O)Nn1cc(CCC(C)(C)O)c2cc(F)ccc21 [Example 172, 4-Methyl-2-thiazol-2-yl-pyrimidine-5-carboxylic acid [5-fluoro-3-(3-hydroxy-3-methyl-butyl)-indol-1-yl]-amide] | 5 nM
CCc1cn(NC(=O)c2cnc(-c3ncccn3)nc2C)c2ccc(C(F)(F)F)cc12 [Example 176, 4-Methyl-[2,2′]bipyrimidinyl-5-carboxylic acid (3-ethyl-5-trifluoromethyl-indol-1-yl)-amide] | 8 nM
Cc1nc(-c2cccc(F)c2)ncc1C(=O)NN(c1ccccc1)c1ccccc1 [Example 190, 2-(3-Fluoro-phenyl)-4-methyl-pyrimidine-5-carboxylic acid N′,N′-diphenyl-hydrazide] | 16 nM
CCc1cn(NC(=O)c2cnc(-c3cccc(F)c3)nc2C)c2cnccc12 [Example 195, 2-(3-Fluoro-phenyl)-4-methyl-pyrimidine-5-carboxylic acid (3-ethyl-pyrrolo[2,3c]pyridin-1-yl)-amide] | 7 nM
Cc1nc(-c2cccc(F)c2)ncc1C(=O)Nn1cc(C)c2ncccc21 [Example 197, 2-(3-Fluoro-phenyl)-4-methyl-pyrimidine-5-carboxylic acid (3-methyl-pyrrolo [32-b]pyridin-1-yl)-amide] | 2 nM
